Assay results from ChEMBL document CHEMBL6114953, “De novo discovery of cyclic peptide inhibitors of IL-11 signaling” (Bioorg Med Chem, 2025).
Where a SMILES comes first, the peptide text is derived from it. Bridges are numbered along the chain shown (N, C = ends). [ ]: non-standard residue; d: D form. ξ: configuration not given here. Met(O) = CS(=O)CC[C@H](N)C(=O)O; ξH = NC(Cc1c[nH]cn1)C(=O)O; Nle = CCCC[C@H](N)C(=O)O

assay: Inhibition of his-tagged recombinant human IL-11 (22 to 199 residues) expressed in HEK293 cells/biotinylated recombinant human IL-11Ralpha (24 to 370 residues) expressed in HEK293 cells incubated for 1 hr by AlphaLISA assay; assay type: cell-based

Point of comparison: `CC(C)[C@H](NC(=O)[C@@H](NC(=O)[C@H](CCC(N)=O)NC(=O)[C@H](C)N)[C@@H](C)O)C(=O)N[C@@H](CCC(N)=O)C(=O)N[C@@H](Cc1ccccc1)C(=O)N[C@@H](Cc1ccc(O)cc1)C(=O)N[C@@H](Cc1c[nH]c2ccccc12)C(=O)N[C@H]1CSSC[C@@H](C(=O)N[C@@H](Cc2c[nH]c3ccccc23)C(=O)N[C@@H](CCCNC(=N)N)C(N)=O)NC(=O)[C@H](C(C)C)NC(=O)[C@H]([C@@H](C)O)NC(=O)[C@H]([C@@H](C)O)NC(=O)[C@H](Cc2ccc(O)cc2)NC(=O)[C@H](Cc2ccc(O)cc2)NC(=O)[C@H](CC[S+](C)[O-])NC(=O)[C@H](Cc2c[nH]cn2)NC(=O)[C@H](CO)NC1=O` (stereo partly specified) (H-AQTVQFYWCSH[Met(O)]YYTTVCWR-NH2; disulfide 9-18), Ki 320 nM. Against it:
- CC(C)C[C@@H]1NC(=O)[C@H](Cc2c[nH]c3ccccc23)NC(=O)[C@@H](NC(=O)[C@H](Cc2ccccc2)NC(=O)[C@H](CCC(=O)O)NC(=O)[C@@H](NC(=O)[C@@H](NC(=O)[C@H](CCC(=O)O)NC(=O)[C@H](C)N)[C@@H](C)O)C(C)C)CSSC[C@@H](C(N)=O)NC(=O)[C@H](CCC(=O)O)NC(=O)[C@H](Cc2ccc(O)cc2)NC(=O)[C@H](Cc2c[nH]c3ccccc23)NC(=O)[C@H](Cc2ccc(O)cc2)NC(=O)C(Cc2c[nH]cn2)NC(=O)[C@H](Cc2c[nH]c3ccccc23)NC(=O)[C@@H]2CCCN2C1=O (stereo partly specified) (H-AETVEFCWLPW[ξH]YWYEC-NH2; disulfide 7-17) — 4.1-fold higher, 1300 nM
- CC(C)C[C@@H]1NC(=O)CNC(=O)[C@H](Cc2ccccc2)NC(=O)[C@H](Cc2c[nH]c3ccccc23)NC(=O)[C@H](CCC(=O)O)NC(=O)[C@H](Cc2c[nH]c3ccccc23)NC(=O)[C@H]([C@@H](C)O)NC(=O)[C@@H]2CCCN2C(=O)[C@H](Cc2c[nH]cn2)NC(=O)[C@@H](NC(=O)[C@H](Cc2ccccc2)NC(=O)[C@H](CCC(=O)O)NC(=O)[C@@H](NC(=O)[C@@H](NC(=O)[C@H](CCC(=O)O)NC(=O)[C@H](C)N)[C@@H](C)O)C(C)C)CSSC[C@@H](C(N)=O)NC1=O (H-AETVEFCHPTWEWFGLC-NH2; disulfide 7-17) — 7.5-fold higher, 2400 nM
- CSCC[C@@H]1NC(=O)[C@H](Cc2c[nH]cn2)NC(=O)[C@H](CO)NC(=O)[C@@H](NC(=O)[C@H](Cc2c[nH]c3ccccc23)NC(=O)[C@H](Cc2ccc(O)cc2)NC(C)=O)CSSC[C@@H](C(=O)N[C@@H](Cc2c[nH]c3ccccc23)C(N)=O)NC(=O)[C@H](C(C)C)NC(=O)[C@H]([C@@H](C)O)NC(=O)[C@H]([C@@H](C)O)NC(=O)[C@H](Cc2ccc(O)cc2)NC(=O)[C@H](Cc2ccc(O)cc2)NC1=O (Ac-YWCSHMYYTTVCW-NH2; disulfide 3-12) — higher, > 28000 nM
- CCCC[C@@H]1NC(=O)[C@H](Cc2c[nH]cn2)NC(=O)[C@H](CO)NC(=O)[C@@H](NC(=O)[C@H](Cc2c[nH]c3ccccc23)NC(=O)[C@H](Cc2ccc(O)cc2)NC(C)=O)CSSC[C@@H](C(=O)N[C@@H](Cc2c[nH]c3ccccc23)C(=O)N[C@@H](CCCNC(=N)N)C(N)=O)NC(=O)[C@H](C(C)C)NC(=O)[C@H]([C@@H](C)O)NC(=O)[C@H]([C@@H](C)O)NC(=O)[C@H](Cc2ccc(O)cc2)NC(=O)[C@H](Cc2ccc(O)cc2)NC1=O (Ac-YWCSH[Nle]YYTTVCWR-NH2; disulfide 3-12) — 2.8-fold higher, 900 nM
- CSCC[C@@H]1NC(=O)[C@H](Cc2c[nH]cn2)NC(=O)[C@H](CO)NC(=O)[C@@H](NC(=O)[C@H](Cc2c[nH]c3ccccc23)NC(C)=O)CSSC[C@@H](C(=O)N[C@@H](Cc2c[nH]c3ccccc23)C(=O)N[C@@H](CCCNC(=N)N)C(N)=O)NC(=O)[C@H](C(C)C)NC(=O)[C@H]([C@@H](C)O)NC(=O)[C@H]([C@@H](C)O)NC(=O)[C@H](Cc2ccc(O)cc2)NC(=O)[C@H](Cc2ccc(O)cc2)NC1=O (Ac-WCSHMYYTTVCWR-NH2; disulfide 2-11) — 10-fold higher, 3200 nM
- CC(=O)N[C@@H](Cc1ccc(O)cc1)C(=O)N[C@@H](Cc1c[nH]c2ccccc12)C(=O)N[C@H]1CSSC[C@@H](C(=O)N[C@@H](Cc2c[nH]c3ccccc23)C(=O)N[C@@H](CCCNC(=N)N)C(N)=O)NC(=O)[C@H](C(C)C)NC(=O)[C@H]([C@@H](C)O)NC(=O)[C@H]([C@@H](C)O)NC(=O)[C@H](Cc2ccc(O)cc2)NC(=O)[C@H](Cc2ccc(O)cc2)NC(=O)CNC(=O)[C@H](Cc2c[nH]cn2)NC(=O)[C@H](CO)NC1=O (Ac-YWCSHGYYTTVCWR-NH2; disulfide 3-12) — 5.3-fold higher, 1700 nM
- CSCC[C@@H]1NC(=O)[C@H](Cc2c[nH]cn2)NC(=O)[C@H](CO)NC(=O)[C@@H](NC(=O)[C@H](Cc2c[nH]c3ccccc23)NC(=O)[C@H](Cc2ccc(O)cc2)NC(=O)[C@H](Cc2ccccc2)NC(C)=O)CSSC[C@@H](C(=O)N[C@@H](Cc2c[nH]c3ccccc23)C(=O)N[C@@H](CCCNC(=N)N)C(N)=O)NC(=O)[C@H](C(C)C)NC(=O)[C@H]([C@@H](C)O)NC(=O)[C@H]([C@@H](C)O)NC(=O)[C@H](Cc2ccc(O)cc2)NC(=O)[C@H](Cc2ccc(O)cc2)NC1=O (Ac-FYWCSHMYYTTVCWR-NH2; disulfide 4-13) — within 1.5-fold, 330 nM
- CSCC[C@@H]1NC(=O)[C@H](Cc2c[nH]cn2)NC(=O)[C@H](CO)NC(=O)[C@@H](NC(=O)[C@H](Cc2c[nH]c3ccccc23)NC(=O)[C@H](Cc2ccc(O)cc2)NC(=O)[C@H](Cc2ccccc2)NC(=O)[C@H](CCC(N)=O)NC(=O)[C@@H](NC(=O)[C@@H](NC(=O)[C@H](CCC(N)=O)NC(C)=O)[C@@H](C)O)C(C)C)CSSC[C@@H](C(=O)N[C@@H](Cc2c[nH]c3ccccc23)C(=O)N[C@@H](CCCNC(=N)N)C(N)=O)NC(=O)[C@H](C(C)C)NC(=O)[C@H]([C@@H](C)O)NC(=O)[C@H]([C@@H](C)O)NC(=O)[C@H](Cc2ccc(O)cc2)NC(=O)[C@H](Cc2ccc(O)cc2)NC1=O (Ac-QTVQFYWCSHMYYTTVCWR-NH2; disulfide 8-17) — 2.5-fold higher, 800 nM
- CC(=O)N[C@@H](Cc1ccc(O)cc1)C(=O)N[C@@H](Cc1c[nH]c2ccccc12)C(=O)N[C@H]1CSSC[C@@H](C(=O)N[C@@H](Cc2c[nH]c3ccccc23)C(=O)N[C@@H](CCCNC(=N)N)C(N)=O)NC(=O)[C@H](C(C)C)NC(=O)[C@H]([C@@H](C)O)NC(=O)[C@H]([C@@H](C)O)NC(=O)[C@H](Cc2ccc(O)cc2)NC(=O)[C@H](Cc2ccc(O)cc2)NC(=O)[C@H](CC(C)C)NC(=O)[C@H](Cc2c[nH]cn2)NC(=O)[C@H](CO)NC1=O (Ac-YWCSHLYYTTVCWR-NH2; disulfide 3-12) — 5.9-fold higher, 1900 nM
- CC(=O)NCC(=O)N[C@@H](Cc1c[nH]c2ccccc12)C(=O)N[C@H]1CSSC[C@@H](C(=O)N[C@@H](CC(C)C)C(=O)N[C@@H](CCCNC(=N)N)C(N)=O)NC(=O)[C@H](Cc2c[nH]c3ccccc23)NC(=O)[C@H](C)NC(=O)[C@H](CO)NC(=O)[C@H](Cc2ccc(O)cc2)NC(=O)[C@H](Cc2ccc(O)cc2)NC(=O)CNC(=O)[C@H](CCCCN)NC(=O)[C@H](Cc2c[nH]c3ccccc23)NC1=O (Ac-GWCWKGYYSAWCLR-NH2; disulfide 3-12) — 3.4-fold higher, 1100 nM
- CSCC[C@@H]1NC(=O)[C@H](Cc2c[nH]cn2)NC(=O)[C@H](CO)NC(=O)[C@@H](NC(=O)[C@H](Cc2c[nH]c3ccccc23)NC(=O)[C@H](Cc2ccc(O)cc2)NC(=O)[C@H](Cc2ccccc2)NC(=O)[C@H](CCC(N)=O)NC(C)=O)CSSC[C@@H](C(=O)N[C@@H](Cc2c[nH]c3ccccc23)C(=O)N[C@@H](CCCNC(=N)N)C(N)=O)NC(=O)[C@H](C(C)C)NC(=O)[C@H]([C@@H](C)O)NC(=O)[C@H]([C@@H](C)O)NC(=O)[C@H](Cc2ccc(O)cc2)NC(=O)[C@H](Cc2ccc(O)cc2)NC1=O (Ac-QFYWCSHMYYTTVCWR-NH2; disulfide 5-14) — within 1.5-fold, 270 nM
- CC(C)C[C@@H]1NC(=O)[C@H](Cc2c[nH]c3ccccc23)NC(=O)[C@@H](NC(=O)[C@H](Cc2ccccc2)NC(=O)[C@H](CCC(=O)O)NC(=O)[C@@H](NC(=O)[C@@H](NC(=O)[C@H](CCC(=O)O)NC(=O)[C@H](C)N)[C@@H](C)O)C(C)C)CSSC[C@@H](C(N)=O)NC(=O)[C@H](CCC(N)=O)NC(=O)[C@H](CCC(=O)O)NC(=O)[C@H](Cc2c[nH]c3ccccc23)NC(=O)[C@H](Cc2c[nH]c3ccccc23)NC(=O)[C@H](CCC(N)=O)NC(=O)[C@H](Cc2ccccc2)NC(=O)[C@@H]2CCCN2C1=O (H-AETVEFCWLPFQWWEQC-NH2; disulfide 7-17) — within 1.5-fold, 350 nM
- CSCC[C@@H]1NC(=O)[C@H](Cc2c[nH]cn2)NC(=O)[C@H](CO)NC(=O)[C@@H](NC(=O)[C@H](Cc2c[nH]c3ccccc23)NC(=O)[C@H](Cc2ccc(O)cc2)NC(C)=O)CSSC[C@@H](C(N)=O)NC(=O)[C@H](C(C)C)NC(=O)[C@H]([C@@H](C)O)NC(=O)[C@H]([C@@H](C)O)NC(=O)[C@H](Cc2ccc(O)cc2)NC(=O)[C@H](Cc2ccc(O)cc2)NC1=O (Ac-YWCSHMYYTTVC-NH2; disulfide 3-12) — higher, > 28000 nM
- CCCC[C@@H]1NC(=O)[C@H](Cc2c[nH]cn2)NC(=O)[C@H](CO)NC(=O)[C@@H](NC(=O)[C@H](Cc2c[nH]c3ccccc23)NC(=O)[C@H](Cc2ccc(O)cc2)NC(=O)[C@H](Cc2ccccc2)NC(=O)[C@H](CCC(N)=O)NC(=O)[C@@H](NC(=O)[C@@H](NC(=O)[C@H](CCC(N)=O)NC(=O)[C@H](C)N)[C@@H](C)O)C(C)C)CSSC[C@@H](C(=O)N[C@@H](Cc2c[nH]c3ccccc23)C(=O)N[C@@H](CCCNC(=N)N)C(N)=O)NC(=O)[C@H](C(C)C)NC(=O)[C@H]([C@@H](C)O)NC(=O)[C@H]([C@@H](C)O)NC(=O)[C@H](Cc2ccc(O)cc2)NC(=O)[C@H](Cc2ccc(O)cc2)NC1=O (H-AQTVQFYWCSH[Nle]YYTTVCWR-NH2; disulfide 9-18) — within 1.5-fold, 260 nM
- CSCC[C@@H]1NC(=O)[C@H](Cc2c[nH]cn2)NC(=O)[C@H](CO)NC(=O)[C@@H](NC(=O)[C@H](Cc2c[nH]c3ccccc23)NC(=O)[C@H](Cc2ccc(O)cc2)NC(=O)[C@H](Cc2ccccc2)NC(=O)[C@H](CCC(N)=O)NC(=O)[C@@H](NC(=O)[C@@H](NC(C)=O)[C@@H](C)O)C(C)C)CSSC[C@@H](C(=O)N[C@@H](Cc2c[nH]c3ccccc23)C(=O)N[C@@H](CCCNC(=N)N)C(N)=O)NC(=O)[C@H](C(C)C)NC(=O)[C@H]([C@@H](C)O)NC(=O)[C@H]([C@@H](C)O)NC(=O)[C@H](Cc2ccc(O)cc2)NC(=O)[C@H](Cc2ccc(O)cc2)NC1=O (Ac-TVQFYWCSHMYYTTVCWR-NH2; disulfide 7-16) — 2.8-fold higher, 900 nM
